In patent publication US11058678B2 (Enanta Pharmaceuticals, Inc., priority 2018, dated 2021):

Test system: HBV (2.2.15 cells)
Experiment: Antiviral activity in 2.2.15 cells: reduction of viral product accumulation (qPCR of lysates, HBsAg or HBeAg ELISA)
Assay type: cell-based, hepatitis B virus (HBV)
Conditions: Hepatitis B virus, 120 h, day 5 post treatment, 50% reduction of viral product accumulation in lysates or supernatants vs no drug controls, readout (qPCR, HBsAg, HBeAg) not specified
Protocol: 2.2.15 cells are passaged upon attaining confluency in DMEM/F12 media in the presence of 10% FBS, Penn/Strep, and 250 ug/mL G418. Novel compounds are 5 fold serially diluted in DMSO and added to 96 well plates containing 35,000 cells/well at a 1:200 dilution so that the final concentration of DMSO is 0.5%. On day 5, post treatment cell lysates and supernatants are harvested for analysis.
Cells are lysed using Agilent Sidestep Lysis buffer, diluted 1:100 and quantified via quantitative real time PCR. Commercially available ELISA kits are used to quantitate the viral proteins HBsAg (Alpco) or HBeAg (US Biological) by following the manufacturer's recommended protocol after diluting samples to match the linear range of their respective assays. Irrespective of readout, compound concentrations that reduce viral product accumulation in the cell lysates or supernatants by 50% relative to no drug controls (EC50) are reported; EC50 ranges are as follows: A<0.1 μM; B 0.1-1 μM; C>1 μM.

SMILES | EC50
Cn1ccc(-c2cc3c(c4c2OCC4)C[C@@H](C(C)(C)C)n2cc(C(=O)O)c(=O)cc2-3)n1 [Example 70, (S)-5-(tert-butyl)-12-(1-methyl-1H-pyrazol-3-yl)-9-oxo-2,3,4,9-tetrahydro-5H-furo[3,2-f]pyrido[2,1-a]isoquinoline-8-carboxylic Acid] | < 100 nM
CC(C)(C)[C@@H]1Cc2c(cc(-c3cnco3)c3c2CCO3)-c2cc(=O)c(C(=O)O)cn21 [Example 83, (S)-5-(tert-butyl)-12-(oxazol-5-yl)-9-oxo-2,3,4,9-tetrahydro-5H-furo[3,2-f]pyrido[2,1-a]isoquinoline-8-carboxylic Acid] | < 100 nM
COCCCOc1cc2c(cc1-c1nnc(C(F)(F)F)o1)-c1cc(=O)c(C(=O)O)cn1[C@H](C(C)(C)C)C2 [Example 53, (S)-6-(tert-butyl)-9-(3-methoxypropoxy)-2-oxo-10-(5-(trifluoromethyl)-1,3,4-oxadiazol-2-yl)-6,7-dihydro-2H-pyrido[2,1-a]isoquinoline-3-carboxylic Acid] | < 100 nM
CC(C)(C)[C@@H]1Cc2c(cc(-c3ccccc3Cl)c3c2CCO3)-c2cc(=O)c(C(=O)O)cn21 [Example 76, (S)-5-(tert-butyl)-12-(2-chlorophenyl)-9-oxo-2,3,4,9-tetrahydro-5H-furo[3,2-f]pyrido[2,1-a]isoquinoline-8-carboxylic Acid] | < 100 nM
CC1(C)Cc2c3c(cc(-c4ccco4)c2O1)-c1cc(=O)c(C(=O)O)cn1[C@H](C(C)(C)C)C3 [Example 148, (S)-5-(tert-butyl)-12-(furan-2-yl)-2,2-dimethyl-9-oxo-2,3,4,9-tetrahydro-5H-furo[3,2-f]pyrido[2,1-a]isoquinoline-8-carboxylic Acid] | > 1000 nM
CC(C)(C)[C@@H]1Cc2c(cc(-c3ccncc3)c3c2CCO3)-c2cc(=O)c(C(=O)O)cn21 [Example 74, (S)-5-(tert-butyl)-9-oxo-12-(pyridin-4-yl)-2,3,4,9-tetrahydro-5H-furo[3,2-f]pyrido[2,1-a]isoquinoline-8-carboxylic Acid] | < 100 nM
CC(C)[C@@H]1Cc2c(cc(-c3cnsc3)c3c2CCO3)-c2cc(=O)c(C(=O)O)cn21 [Example 103, (S)-5-isopropyl-12-(isothiazol-4-yl)-9-oxo-2,3,4,9-tetrahydro-5H-furo[3,2-f]pyrido[2,1-a]isoquinoline-8-carboxylic Acid] | < 100 nM
CC(C)(C)[C@@H]1Cc2c(cc(-c3cccnc3)c3c2CCO3)-c2cc(=O)c(C(=O)O)cn21 [Example 75, (S)-5-(tert-butyl)-9-oxo-12-(pyridin-3-yl)-2,3,4,9-tetrahydro-5H-furo[3,2-f]pyrido[2,1-a]isoquinoline-8-carboxylic Acid] | < 100 nM
CC(C)(C)[C@@H]1Cc2c(cc(C3CCOC3)c3c2CCO3)-c2cc(=O)c(C(=O)O)cn21 (stereo partly drawn) [Example 130, (5S)-5-(tert-butyl)-9-oxo-12-(tetrahydrofuran-3-yl)-2,3,4,9-tetrahydro-5H-furo[3,2-f]pyrido[2,1-a]isoquinoline-8-carboxylic Acid] | < 100 nM
COCCCOc1cc2c(cc1-c1ccsc1)-c1cc(=O)c(C(=O)O)cn1[C@H]1[C@@H]2COC1(C)C [Example 143, (3aS,12bR)-11-(3-methoxypropoxy)-3,3-dimethyl-7-oxo-10-(thiophen-3-yl)-3,3a,7,12b-tetrahydro-1H-furo[3,4-c]pyrido[2,1-a]isoquinoline-6-carboxylic Acid] | < 100 nM
CC(C)[C@@H]1Cc2c(cc(-c3ccncc3)c3c2CCO3)-c2cc(=O)c(C(=O)O)cn21 [Example 104, (S)-5-isopropyl-9-oxo-12-(pyridin-4-yl)-2,3,4,9-tetrahydro-5H-furo[3,2-f]pyrido[2,1-a]isoquinoline-8-carboxylic Acid] | < 100 nM
CC(C)(C)[C@@H]1Cc2c(cc(-c3cn[nH]c3)c3c2CCO3)-c2cc(=O)c(C(=O)O)cn21 [Example 87, (S)-5-(tert-butyl)-9-oxo-12-(1H-pyrazol-4-yl)-2,3,4,9-tetrahydro-5H-furo[3,2-f]pyrido[2,1-a]isoquinoline-8-carboxylic Acid] | < 100 nM
COCCCOc1cc2c(cc1-c1cccc(OC(F)(F)F)c1)-c1cc(=O)c(C(=O)O)cn1[C@H](C(C)(C)C)C2 [Example 57, (S)-6-(tert-butyl)-9-(3-methoxypropoxy)-2-oxo-10-(3-(trifluoromethoxy)phenyl)-6,7-dihydro-2H-pyrido[2,1-a]isoquinoline-3-carboxylic Acid] | > 1000 nM
COCCCOc1cc2c(cc1-c1cccnc1)-c1cc(=O)c(C(=O)O)cn1[C@H]1[C@@H]2COC1(C)C [Example 128, (3aS,12bR)-11-(3-methoxypropoxy)-3,3-dimethyl-7-oxo-10-(pyridin-3-yl)-3,3a,7,12b-tetrahydro-1H-furo[3,4-c]pyrido[2,1-a]isoquinoline-6-carboxylic Acid] | < 100 nM
COCCCOc1cc2c(cc1-c1nnco1)-c1cc(=O)c(C(=O)O)cn1[C@H](C(C)(C)C)C2 [Example 36, (S)-6-(tert-butyl)-9-(3-methoxypropoxy)-10-(1,3,4-oxadiazol-2-yl)-2-oxo-6,7-dihydro-2H-pyrido[2,1-a]isoquinoline-3-carboxylic Acid] | < 100 nM
CC(C)[C@@H]1Cc2c(cc(-c3cnco3)c3c2CCO3)-c2cc(=O)c(C(=O)O)cn21 [Example 91, (S)-5-isopropyl-12-(oxazol-5-yl)-9-oxo-2,3,4,9-tetrahydro-5H-furo[3,2-f]pyrido[2,1-a]isoquinoline-8-carboxylic Acid] | < 100 nM
CC(C)[C@@H]1Cc2c(cc(-c3ccn[nH]3)c3c2CCO3)-c2cc(=O)c(C(=O)O)cn21 [Example 106, (S)-5-isopropyl-9-oxo-12-(1H-pyrazol-5-yl)-2,3,4,9-tetrahydro-5H-furo[3,2-f]pyrido[2,1-a]isoquinoline-8-carboxylic Acid] | < 100 nM
CC(C)(C)[C@@H]1Cc2c(cc(N3CC(F)(F)C3)c3c2C[C@H](C(F)F)O3)-c2cc(=O)c(C(=O)O)cn21 [Example 155, (2R,5S)-5-(tert-butyl)-12-(3,3-difluoroazetidin-1-yl)-2-(difluoromethyl)-9-oxo-2,3,4,9-tetrahydro-5H-furo[3,2-f]pyrido[2,1-a]isoquinoline-8-carboxylic Acid] | > 1000 nM
COCCCOc1cc2c(cc1-c1ccccc1OC(F)(F)F)-c1cc(=O)c(C(=O)O)cn1[C@H](C(C)(C)C)C2 [Example 58, (S)-6-(tert-butyl)-9-(3-methoxypropoxy)-2-oxo-10-(2-(trifluoromethoxy)phenyl)-6,7-dihydro-2H-pyrido[2,1-a]isoquinoline-3-carboxylic Acid] | > 1000 nM
CC(C)[C@@H]1Cc2c(cc(-c3ccc(F)c(F)c3)c3c2CCO3)-c2cc(=O)c(C(=O)O)cn21 [Example 114, (S)-12-(3,4-difluorophenyl)-5-isopropyl-9-oxo-2,3,4,9-tetrahydro-5H-furo[3,2-f]pyrido[2,1-a]isoquinoline-8-carboxylic Acid] | > 1000 nM
COCCCOc1cc2c(cc1N1CCCC1)-c1cc(=O)c(C(=O)O)cn1[C@@H](C(C)(C)C)C2 [Example 50, (R)-6-(tert-butyl)-9-(3-methoxypropoxy)-2-oxo-10-(pyrrolidin-1-yl)-6,7-dihydro-2H-pyrido[2,1-a]isoquinoline-3-carboxylic Acid] | < 100 nM
COCCCOc1cc2c(cc1-c1ccccc1)-c1cc(=O)c(C(=O)O)cn1[C@H]1[C@@H]2COC1(C)C [Example 141] | < 100 nM
COCCCOc1cc2c(cc1-c1ccn(C)n1)-c1cc(=O)c(C(=O)O)cn1[C@H]1[C@@H]2COC1(C)C [Example 124, (3aS,12bR)-11-(3-methoxypropoxy)-3,3-dimethyl-10-(1-methyl-1H-pyrazol-3-yl)-7-oxo-3,3a,7,12b-tetrahydro-1H-furo[3,4-c]pyrido[2,1-a]isoquinoline-6-carboxylic Acid] | < 100 nM
COCCCOc1cc2c(cc1-c1ccc(OC(C)C)cc1)-c1cc(=O)c(C(=O)O)cn1[C@H](C(C)(C)C)C2 [Example 38, (S)-6-(tert-butyl)-10-(4-isopropoxyphenyl)-9-(3-methoxypropoxy)-2-oxo-6,7-dihydro-2H-pyrido[2,1-a]isoquinoline-3-carboxylic Acid] | > 1000 nM
CC(C)[C@@H]1Cc2c(cc(-c3ccc(F)cc3)c3c2CCO3)-c2cc(=O)c(C(=O)O)cn21 [Example 89, (S)-12-(4-fluorophenyl)-5-isopropyl-9-oxo-2,3,4,9-tetrahydro-5H-furo[3,2-f]pyrido[2,1-a]isoquinoline-8-carboxylic Acid] | < 100 nM
CC(C)(C)[C@@H]1Cc2c(cc(N3CCC3)c3c2CCO3)-c2cc(=O)c(C(=O)O)cn21 [Example 111, (S)-12-(azetidin-1-yl)-5-(tert-butyl)-9-oxo-2,3,4,9-tetrahydro-5H-furo[3,2-f]pyrido[2,1-a]isoquinoline-8-carboxylic Acid] | < 100 nM
CC(C)(C)[C@@H]1Cc2c(cc(N3CC4(CCO4)C3)c3c2CCO3)-c2cc(=O)c(C(=O)O)cn21 [Example 120, (S)-5-(tert-butyl)-9-oxo-12-(1-oxa-6-azaspiro[3.3]heptan-6-yl)-2,3,4,9-tetrahydro-5H-furo[3,2-f]pyrido[2,1-a]isoquinoline-8-carboxylic Acid] | > 1000 nM
Cn1cc(-c2cc3c(c4c2OCC4)C[C@@H](C(C)(C)C)n2cc(C(=O)O)c(=O)cc2-3)cn1 [Example 69, (S)-5-(tert-butyl)-12-(1-methyl-1H-pyrazol-4-yl)-9-oxo-2,3,4,9-tetrahydro-5H-furo[3,2-f]pyrido[2,1-a]isoquinoline-8-carboxylic Acid] | < 100 nM
